In patent US9714250B2, “Crystalline forms of temozolomide and the method for preparing same” (Jiangsu Tasly Diyi Pharmaceutical Co., Ltd., priority 2013, dated 2017):

Experiments:
Type in all cases: physicochemical
[1] = Stability test, overall conclusions; details: light exposure, high-temperature, high-humidity and accelerated tests
Experimental: (§1) In the following test, related substances were determined as follows: HPLC method was used and chromatographic conditions were as follows: C18 column using octadecylsilane bonded silica gel as the filler, isocratic elution using methanol: 0.5% glacial acetic acid solution (10:90) as the mobile phase, and detection wavelength was at 254 nm.
It should be noted that each crystalline form of Form A, Form B and Form C has similar stability properties. Hereinafter, Form A0, Form B0 and Form C were chosen only for illustrative purpose.

Solubility test = details: for Amount of solvent for dissolving tested drug: about 10 mg tested drug
Experimental: It should be noted that each crystalline form of Form A, Form B and Form C has similar solubility properties. Hereinafter, Form A0, B0 and C were chosen only for illustrative purpose.
1. Solubility test of the crystalline Form A of Temozolomide (Form A0 prepared by the method of EXAMPLE 1). Solubility properties were assayed respectively by using DMSO, methanol, water, glacial acetic acid, 0.1M HCl, 0.1M NaOH and ethanol as the solvents.
2. Solubility test of the crystalline form B of Temozolomide (Form B0 prepared by the method of EXAMPLE 6). Solubility properties were assayed respectively by using DMSO, methanol, water, glacial acetic acid, 0.1M HCl, 0.1M NaOH and ethanol as the solvents.
3. Solubility test of the crystalline form C of Temozolomide (Form C prepared by the method of EXAMPLE 14). Solubility properties were assayed respectively by using DMSO, methanol, water, glacial acetic acid, 0.1M HCl, 0.1M NaOH and ethanol as the solvents.

[2] = Light exposure test (stability); details: for Stability in the light exposure test (conclusion): 4500±500Lx, 10 days; for Appearance and color / Content / Drying loss / Related substances: light intensity 4500±500Lx; for Related substances: HPLC
Experimental: as §1
Crystalline form A of Temozolomide (Form A0 prepared by the method of EXAMPLE 1) was exposed under conditions of light intensity of 4500±500Lx, sampled and determined on the 5th and 10th day.
Crystalline form B of Temozolomide (Form B0 prepared by the method of EXAMPLE 6) was placed, exposed under conditions of light intensity of 4500±500Lx, sampled and determined on the 5th and 10th day.
Crystalline Form C of Temozolomide (Form C prepared by the method of EXAMPLE 14) was placed, exposed under conditions of light intensity of 4500±500Lx, sampled and determined on the 5th and 10th day.

[3] = High temperature test (stability); details: for Appearance and color / Content / Drying loss / Related substances: 60° C. incubator; for Related substances: HPLC; for Stability in the high-temperature test (conclusion): 60° C., 10 days
Experimental: as §1
Crystalline form A of Temozolomide (Form A0 prepared by the method of EXAMPLE 1) was placed in 60° C. incubator, sampled and determined on the 5th and 10th day.
Crystalline Form B of Temozolomide (Form B0 prepared by the method of EXAMPLE 6) was placed in 60° C. incubator, sampled and determined on the 5th and 10th day.
Crystalline Form C of Temozolomide (Form C prepared by the method of EXAMPLE 14) was placed in 60° C. incubator, sampled and determined on the 5th and 10th day.

[4] = High humidity test (stability); details: for Stability in the high-humidity test (conclusion) / Appearance and color / Content / Weight gain of moisture absorption / Related substances: 25° C., relative humidity 75±5%; for Stability in the high-humidity test (conclusion): 10 days; for Related substances: HPLC; for Weight gain of moisture absorption (trend): under the high-humidity condition
Experimental: as §1
Crystalline Form A of Temozolomide (Form A0 prepared by the method of EXAMPLE 1) was placed in 25° C. incubator (relative humidity: 75±5%), sampled and determined on the 5th and 10th day.
Crystalline Form B of Temozolomide (Form B0 prepared by the method of EXAMPLE 6) was placed in 25° C. incubator (relative humidity: 75±5%), sampled and determined on the 5th and 10th day.
Crystalline Form C of Temozolomide (Form C prepared by the method of EXAMPLE 14) was placed in 25° C. incubator (relative humidity: 75±5%), sampled and determined on the 5th and 10th day.

Cn1nnc2c(C(N)=O)ncn2c1=O [Form A, Temozolomide]
Change in the appearance and color, the drying loss, the content and the related substances [1]: no obvious change | Amount of solvent for dissolving 1 g of tested drug (Solubility test; solvent 0.1M HCl): 700 mL | Solubility (Solubility test; solvent 0.1M HCl): Slightly soluble | Amount of solvent for dissolving tested drug (Solubility test; solvent 0.1M HCl): 7 mL | Amount of solvent for dissolving 1 g of tested drug (Solubility test; solvent 0.1M NaOH): 300 mL | Solubility (Solubility test; solvent 0.1M NaOH): Slightly soluble | Amount of solvent for dissolving tested drug (Solubility test; solvent 0.1M NaOH): 3 mL | Amount of solvent for dissolving 1 g of tested drug (Solubility test; solvent DMSO): 70 mL | Solubility (Solubility test; solvent DMSO): sparingly | Amount of solvent for dissolving tested drug (Solubility test; solvent DMSO): 0.7 mL | Amount of solvent for dissolving 1 g of tested drug (Solubility test; solvent Ethanol): 5500 mL | Solubility (Solubility test; solvent Ethanol): Very slightly | Amount of solvent for dissolving tested drug (Solubility test; solvent Ethanol): 55 mL | Amount of solvent for dissolving 1 g of tested drug (Solubility test; solvent Glacial acetic acid): 300 mL | Solubility (Solubility test; solvent Glacial acetic acid): Slightly soluble | Amount of solvent for dissolving tested drug (Solubility test; solvent Glacial acetic acid): 3.0 mL | Amount of solvent for dissolving 1 g of tested drug (Solubility test; solvent Methanol): 700 mL | Solubility (Solubility test; solvent Methanol): Slightly soluble | Amount of solvent for dissolving tested drug (Solubility test; solvent Methanol): 7.0 mL | Amount of solvent for dissolving 1 g of tested drug (Solubility test; solvent Water): 800 mL | Solubility (Solubility test; solvent Water): Slightly soluble | Amount of solvent for dissolving tested drug (Solubility test; solvent Water): 8.0 mL | Stability in the light exposure test (conclusion) [2]: stable | Appearance and color ([2]; 0th day): White powder | Content ([2]; 0th day): 99.94% | Drying loss ([2]; 0th day): 0.35% | Related substances ([2]; 0th day): Not detected | Appearance and color ([2]; 5th day): White powder | Content ([2]; 5th day): 99.93% | Drying loss ([2]; 5th day): 0.33% | Related substances ([2]; 5th day): Not detected | Appearance and color ([2]; 10th day): White powder | Content ([2]; 10th day): 99.81% | Drying loss ([2]; 10th day): 0.39% | Related substances ([2]; 10th day): Not detected | Appearance and color ([3]; 0th day): White powder | Content ([3]; 0th day): 99.94% | Drying loss ([3]; 0th day): 0.41% | Related substances ([3]; 0th day): Not detected | Appearance and color ([3]; 5th day): White powder | Content ([3]; 5th day): 99.63% | Drying loss ([3]; 5th day): 0.38% | Related substances ([3]; 5th day): Not detected | Appearance and color ([3]; 10th day): White powder | Content ([3]; 10th day): 99.31% | Drying loss ([3]; 10th day): 0.34% | Related substances ([3]; 10th day): Not detected | Stability in the high-temperature test (conclusion) [3]: stable | Stability in the high-humidity test (conclusion) [4]: stable | Appearance and color ([4]; 0th day): White powder | Content ([4]; 0th day): 99.94% | Weight gain of moisture absorption ([4]; 0th day): 0% | Related substances ([4]; 0th day): Not detected | Appearance and color ([4]; 5th day): White powder | Content ([4]; 5th day): 99.73% | Weight gain of moisture absorption ([4]; 5th day): 0.32% | Related substances ([4]; 5th day): Not detected | Appearance and color ([4]; 10th day): White powder | Content ([4]; 10th day): 99.52% | Weight gain of moisture absorption ([4]; 10th day): 0.51% | Related substances ([4]; 10th day): Not detected | Weight gain of moisture absorption (trend) [4]: slightly increased

Cn1nnc2c(C(N)=O)ncn2c1=O [Form B, Temozolomide]
Change in the appearance and color, the drying loss, the content and the related substances [1]: no obvious change | Amount of solvent for dissolving 1 g of tested drug (Solubility test; solvent 0.1M HCl): 800 mL | Solubility (Solubility test; solvent 0.1M HCl): Slightly soluble | Amount of solvent for dissolving tested drug (Solubility test; solvent 0.1M HCl): 8 mL | Amount of solvent for dissolving 1 g of tested drug (Solubility test; solvent 0.1M NaOH): 300 mL | Solubility (Solubility test; solvent 0.1M NaOH): Slightly soluble | Amount of solvent for dissolving tested drug (Solubility test; solvent 0.1M NaOH): 3 mL | Amount of solvent for dissolving 1 g of tested drug (Solubility test; solvent DMSO): 70 mL | Solubility (Solubility test; solvent DMSO): sparingly | Amount of solvent for dissolving tested drug (Solubility test; solvent DMSO): 0.6 mL | Amount of solvent for dissolving 1 g of tested drug (Solubility test; solvent Ethanol): 5700 mL | Solubility (Solubility test; solvent Ethanol): Very slightly | Amount of solvent for dissolving tested drug (Solubility test; solvent Ethanol): 57 mL | Amount of solvent for dissolving 1 g of tested drug (Solubility test; solvent Glacial acetic acid): 300 mL | Solubility (Solubility test; solvent Glacial acetic acid): Slightly soluble | Amount of solvent for dissolving tested drug (Solubility test; solvent Glacial acetic acid): 3.0 mL | Amount of solvent for dissolving 1 g of tested drug (Solubility test; solvent Methanol): 900 mL | Solubility (Solubility test; solvent Methanol): Slightly soluble | Amount of solvent for dissolving tested drug (Solubility test; solvent Methanol): 9.0 mL | Amount of solvent for dissolving 1 g of tested drug (Solubility test; solvent Water): 800 mL | Solubility (Solubility test; solvent Water): Slightly soluble | Amount of solvent for dissolving tested drug (Solubility test; solvent Water): 8.0 mL | Stability in the light exposure test (conclusion) [2]: stable | Appearance and color ([2]; 0th day): White powder | Content ([2]; 0th day): 99.97% | Drying loss ([2]; 0th day): 0.38% | Related substances ([2]; 0th day): Not detected | Appearance and color ([2]; 5th day): White powder | Content ([2]; 5th day): 99.92% | Drying loss ([2]; 5th day): 0.33% | Related substances ([2]; 5th day): Not detected | Appearance and color ([2]; 10th day): White powder | Content ([2]; 10th day): 99.95% | Drying loss ([2]; 10th day): 0.29% | Related substances ([2]; 10th day): Not detected | Appearance and color ([3]; 0th day): White powder | Content ([3]; 0th day): 99.97% | Drying loss ([3]; 0th day): 0.33% | Related substances ([3]; 0th day): Not detected | Appearance and color ([3]; 5th day): White powder | Content ([3]; 5th day): 99.73% | Drying loss ([3]; 5th day): 0.27% | Related substances ([3]; 5th day): Not detected | Appearance and color ([3]; 10th day): White powder | Content ([3]; 10th day): 99.61% | Drying loss ([3]; 10th day): 0.29% | Related substances ([3]; 10th day): Not detected | Stability in the high-temperature test (conclusion) [3]: stable | Stability in the high-humidity test (conclusion) [4]: stable | Appearance and color ([4]; 0th day): White powder | Content ([4]; 0th day): 99.97% | Weight gain of moisture absorption ([4]; 0th day): 0% | Related substances ([4]; 0th day): Not detected | Appearance and color ([4]; 5th day): White powder | Content ([4]; 5th day): 99.63% | Weight gain of moisture absorption ([4]; 5th day): 0.37% | Related substances ([4]; 5th day): Not detected | Appearance and color ([4]; 10th day): White powder | Content ([4]; 10th day): 99.57% | Weight gain of moisture absorption ([4]; 10th day): 0.52% | Related substances ([4]; 10th day): Not detected | Weight gain of moisture absorption (trend) [4]: slightly increased
